For the assay, the target named is T1, Recombinant human LTC4 synthase (Homo sapiens, UniProt Q16873).
T1 construct: made in house; host or cells: Pichia pastoris ('Piccia pastoralis' [sic])
T1 sequence (Q16873 1-150): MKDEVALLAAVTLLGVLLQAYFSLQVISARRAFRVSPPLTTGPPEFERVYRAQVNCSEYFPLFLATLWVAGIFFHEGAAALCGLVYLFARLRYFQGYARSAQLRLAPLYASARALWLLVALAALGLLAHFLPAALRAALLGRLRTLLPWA
Briefly: LTC4 synthase in vitro assay (LTA4 to LTC4, HTRF detection). Conditions: for inhibition at 10 µM: 5 min, total concentration of title compound in the assay 10 μM. The assay is classed as biochemical. The protocol: In the assay, LTC4 synthase catalyses the reaction where the substrate LTA4 is converted to LTC4. Recombinant human LTC4 synthase is expressed in Piccia pastoralis and the purified enzyme is dissolved in 25 mM tris-buffer pH 7.8 supplemented with 0.1 mM glutathione (GSH) and stored at −80° C. The assay is performed in phosphate buffered saline (PBS) pH 7.4 and 5 mM GSH in 384-well plates.
The following is added chronologically to each well:
1.48 μL LTC4 synthase in PBS with 5 mM GSH. The total protein concentration in this solution is 0.5 μg/mL. 2. 1 μL inhibitor in DMSO (final concentration 10 μM). 3. Incubation of the plate at room temperature for 10 min. 4. 1 μL LTA4 (final concentration 2.5 μM). 5. Incubation of the plate at room temperature for 5 min. 6. 10 μL of the incubation mixture is analysed using homogenous time resolved fluorescent (HTRF) detection.
A general note: In TR-FRET formats the signal depends on donor and acceptor labels being close together.

Experimental findings from patent US20120004244A1, “Bis Aromatic Compounds for Use as LTC4 Synthase Inhibitors” (BIOLIPOX AB, priority 2009, published 2012) are described below.

As usually defined, the IC50 is the point on the concentration scale where inhibition reaches its midpoint. Usually inhibition stands for the relative decrease from the control value, in per cent.

`O=C(c1ccc(Oc2ccccc2)c(C(=O)O)c1)c1ccc(Nc2ccc(Cl)cc2)cn1` [1:29, 5-[5-(4-Chlorophenylamino)picolinoyl]-2-phenoxybenzoic acid]: the IC50 amounted to 0.282 µM. On to `COc1cccc(Oc2ccc(C(=O)c3ccc(N(CC4CC4)c4ccc(Cl)cc4)cn3)cc2C(=O)O)c1` [1:30, 5-{5-[(4-Chlorophenyl)(cyclopropylmethyl)amino]picolinoyl}-2-(3-methoxyphenoxy)benzoic acid], for which the IC50 was determined as 0.158 µM. Regarding `O=C(c1ccc(Oc2ccc3c(c2)OCO3)c(C(=O)O)c1)c1ccc(N(CC2CC2)c2ccc(Cl)cc2)cn1` [1:31, 5-{5-[(4-Chlorophenyl)(cyclopropylmethyl)amino]picolinoyl}-2-(3,4-methylenedioxyphenoxy)benzoic acid], the IC50 is 0.142 µM. On the same count and under the same terms, the same measure for `N#Cc1ccccc1Oc1ccccc1Oc1ccc(C(=O)c2ccc(N(CC3CC3)c3ccc(Cl)cc3)cn2)cc1C(=O)O` [1:32, 5-{5-[(4-Chlorophenyl)(cyclopropylmethyl)amino]picolinoyl}-2-[2-(2-cyanophenoxy)phenoxy]benzoic acid]: 0.02 µM. Consider `C#CCN(c1ccc(C(=O)c2ccc(Oc3ccccc3F)c(C(=O)O)c2)nc1)c1ccc(Cl)cc1F` [1:33, 5-{5-[(4-Chloro-2-fluorophenyl)(2-propynyl)amino]picolinoyl}-2-(2-fluorophenoxy)benzoic acid], for which the half-maximal inhibitory concentration (IC50) is 0.351 µM. `O=C(c1ccc(Oc2ccccc2F)c(C(=O)O)c1)c1ccc(N(CC2CC2)c2ccc(Cl)cc2F)cn1` [1:34, 5-{5-[(4-Chloro-2-fluorophenyl)(cyclopropylmethyl)amino]picolinoyl}-2-(2-fluorophenoxy)benzoic acid]: the IC50 was found to be 0.195 µM. On the same count and under the same terms, the same measure for `O=C(c1ccc(Oc2ccccc2F)c(C(=O)O)c1)c1ccc(N(CC(F)(F)F)c2ccc(Cl)cc2F)cn1` [1:35, 5-{5-[(4-Chloro-2-fluorophenyl)-(2,2,2-trifluoroethyl)amino]picolinoyl}-2-(2-fluorophenoxy)benzoic acid]: 0.621 µM; for `O=C(c1ccc(Oc2ccccc2CCCO)c(C(=O)O)c1)c1ccc(N(CC2CC2)c2ccc(Cl)cc2)cn1` [1:36, 5-{5-[(4-Chlorophenyl)(cyclopropylmethyl)amino]picolinoyl}-2-[2-(3-hydroxypropyl)phenoxy]benzoic acid]: 0.116 µM. Same read-out and setting: the same measure for `CS(=O)(=O)c1ccc(Oc2ccc(C(=O)c3ccc(N(CC4CC4)c4ccc(Cl)cc4)cn3)cc2C(=O)O)cc1` [1:37, 5-{5-[(4-Chlorophenyl)(cyclopropylmethyl)amino]picolinoyl}-2-(4-methylsulfonylphenoxy)benzoic acid]: 0.3 µM; for `O=C(c1ccc(Oc2ccccc2F)c(C(=O)O)c1)c1ccc(N(CC2CC2)c2ccc(Cl)cc2)cn1` [1:38, 5-{5-[(4-Chlorophenyl)(cyclopropylmethyl)amino]picolinoyl}-2-(2-fluorophenoxy)benzoic acid]: 0.079 µM; for `COc1cc(OC)cc(Oc2ccc(C(=O)c3ccc(N(CC4CC4)c4ccc(Cl)cc4)cn3)cc2C(=O)O)c1` [1:39, 5-{5-[(4-Chlorophenyl)(cyclopropylmethyl)amino]picolinoyl}-2-(3,5-dimethoxyphenoxy)benzoic acid]: 0.07 µM. The same measure, in the same setting: next, `O=C(c1ccc(Oc2ccccc2Oc2ccccc2)c(C(=O)O)c1)c1ccc(N(CC2CC2)c2ccc(Cl)cc2)cn1` [1:40, 5-{5-[(4-Chlorophenyl)(cyclopropylmethyl)amino]picolinoyl}-2-(2-phenoxyphenoxy)benzoic acid]: 0.066 µM; `CC1(CN(c2ccc(C(=O)c3ccc(Oc4ccccc4F)c(C(=O)O)c3)nc2)c2ccc(Cl)cc2F)COC1` [1:41, 5-{5-[(4-Chloro-2-fluorophenyl)-(3-methyloxetan-3-ylmethyl)amino]picolinoyl}-2-(2-fluorophenoxy)benzoic acid]: 1.32 µM; `O=C(c1ccc(Oc2ccccc2Oc2ccc(F)cc2F)c(C(=O)O)c1)c1ccc(N(CC2CC2)c2ccc(Cl)cc2)cn1` [1:42, 5-{5-[(4-Chlorophenyl)(cyclopropylmethyl)amino]picolinoyl}-2-[2-(2,4-difluorophenoxy)phenoxy]benzoic acid]: 0.052 µM.

In the case of `O=C(c1ccc(Oc2ccccc2Oc2cccnc2)c(C(=O)O)c1)c1ccc(N(CC2CC2)c2ccc(Cl)cc2)cn1` [1:43, 5-{5-[(4-Chlorophenyl)(cyclopropylmethyl)amino]picolinoyl}-2-[2-(3-pyridyloxy)phenoxy]benzoic acid], the IC50 came to 0.061 µM.

Regarding `O=C(c1ccc(Oc2ccccc2Oc2ccccn2)c(C(=O)O)c1)c1ccc(N(CC2CC2)c2ccc(Cl)cc2)cn1` [1:44, 5-{5-[(4-Chlorophenyl)(cyclopropylmethyl)amino]picolinoyl}-2-[2-(2-pyridyloxy)phenoxy]benzoic acid], the IC50 turned out to be 0.057 µM. As for `O=C(c1ccc(Oc2ccccc2Oc2ccccc2Cl)c(C(=O)O)c1)c1ccc(N(CC2CC2)c2ccc(Cl)cc2)cn1` [1:45, 2-[2-(2-Chlorophenoxy)phenoxy]-5-{5-[(4-chlorophenyl)(cyclopropylmethyl)amino]picolinoyl}benzoic acid], the IC50 was determined as 0.032 µM. In the case of `O=C(c1ccc(Oc2ccccc2Oc2ccccc2F)c(C(=O)O)c1)c1ccc(N(CC2CC2)c2ccc(Cl)cc2)cn1` [1:46, 5-{5-[(4-Chlorophenyl)(cyclopropylmethyl)amino]picolinoyl}-2-[2-(2-fluorophenoxy)phenoxy]benzoic acid], the IC50 was determined as 0.04 µM. For `CN(c1ccc(Cl)cc1)c1ccc(C(=O)c2ccc(Oc3ccccc3[S+](C)[O-])c(C(=O)O)c2)nc1` (stereo not shown) [1:47, 5-{5-[(4-Chlorophenyl)(methyl)amino]picolinoyl}-2-(2-methylsulfinylphenoxy)-benzoic acid], the concentration for half-maximal inhibition (IC50) is 1.03 µM and the inhibition at 10 µM is 88%. Turning to `CN(c1ccc(Cl)cc1)c1ccc(C(=O)c2ccc(Oc3ccccc3S(C)(=O)=O)c(C(=O)O)c2)nc1` [1:48, 5-{5-[(4-Chlorophenyl)(methyl)amino]picolinoyl}-2-(2-methylsulfonylphenoxy)-benzoic acid], the IC50 was 0.632 µM and the inhibition at 10 µM was 95%.

As to `CN(c1ccc(Cl)cc1)c1ccc(C(=O)c2ccc(Nc3ccc(C(F)(F)F)cc3)c(C(=O)O)c2)nc1` [2:1, 5-{5-[(4-Chlorophenyl)(methyl)amino]picolinoyl}-2-(4-trifluoromethylphenyl-amino)benzoic acid], the IC50 turned out to be 0.053 µM and the inhibition at 10 µM worked out at 99%. With `CN(c1ccc(Cl)cc1)c1ccc(C(=O)c2ccc(NC3CCC(C(C)(C)C)CC3)c(C(=O)O)c2)nc1` (stereo not shown) [2:2, 2-(4-tert-Butylcyclohexylamino)-5-{5-[(4-chlorophenyl)(methyl)amino]picolinoyl}-benzoic acid], the IC50 worked out at 0.066 µM. The same measure, in the same setting: the same measure for `CN(c1ccc(Cl)cc1)c1ccc(C(=O)c2ccc(NCc3ccccc3)c(C(=O)O)c2)nc1` [2:3, 2-Benzylamino-5-{5-[(4-chlorophenyl)(methyl)amino]picolinoyl}benzoic acid]: 0.092 µM. In the case of `CN(c1ccc(Cl)cc1)c1ccc(C(=O)c2ccc(NC3CCCCC3)c(C(=O)O)c2)nc1` [2:4, 5-{5-[(4-Chlorophenyl)(methyl)amino]picolinoyl}cyclohexylaminobenzoic acid], the IC50 was 0.14 µM.

On to `CN(c1ccc(Cl)cc1)c1ccc(C(=O)c2ccc(N3CCC(C(C)(C)C)CC3)c(C(=O)O)c2)nc1` [2:5, 2-(4-tert-Butylpiperidin-1-yl)-5-{5-[(4-chlorophenyl)(methyl)amino]picolinoyl}benzoic acid], for which the IC50 turned out to be 3 µM. As for `COc1ccc(CNc2ccc(C(=O)c3ccc(N(C)c4ccc(Cl)cc4)cn3)cc2C(=O)O)cc1` [2:6, 5-{5-[(4-Chlorophenyl)(methyl)amino]picolinoyl}-2-(4-methoxybenzylamino)benzoic acid], the IC50 came to 0.151 µM. Turning to `COc1cccc(CNc2ccc(C(=O)c3ccc(N(C)c4ccc(Cl)cc4)cn3)cc2C(=O)O)c1` [2:7, 5-{5-[(4-Chlorophenyl)(methyl)amino]picolinoyl}-2-(3-methoxybenzylamino)benzoic acid], the IC50 came out at 0.133 µM. As for `COc1ccccc1CNc1ccc(C(=O)c2ccc(N(C)c3ccc(Cl)cc3)cn2)cc1C(=O)O` [2:8, 5-{5-[(4-Chlorophenyl)(methyl)amino]picolinoyl}-2-(2-methoxybenzylamino)benzoic acid], the half-inhibitory concentration (IC50) stood at 0.132 µM.

With `CN(c1ccc(Cl)cc1)c1ccc(C(=O)c2ccc(NCc3cccnc3)c(C(=O)O)c2)nc1` [2:9, 5-{5-[(4-Chlorophenyl)(methyl)amino]picolinoyl}-2-[(3-pyridylmethyl)amino]benzoic acid], the IC50 is 0.466 µM. In the case of `CN(c1ccc(Cl)cc1)c1ccc(C(=O)c2ccc(NCc3ccc(F)cc3)c(C(=O)O)c2)nc1` [2:10, 5-{5-[(4-Chlorophenyl)(methyl)amino]picolinoyl}-2-(4-fluorobenzylamino)benzoic acid], the IC50 was 0.157 µM. In the case of `CN(c1ccc(Cl)cc1)c1ccc(C(=O)c2ccc(NCc3ccc(Cl)cc3Cl)c(C(=O)O)c2)nc1` [2:11, 5-{5-[(4-Chlorophenyl)(methyl)amino]picolinoyl}-2-(2,4-dichlorobenzylamino)benzoic acid], the IC50 was determined as 0.088 µM.
